From patent US12403172B2, “Composition for preventing, alleviating or treating metabolic syndrome accompanied by obesity and/or diabetes, containing, as active ingredient, complex (IB complex) of Indian gooseberry extract and sprout barley extract” (HLSCIENCE CO., LTD, priority 2019, dated 2025)
Marks after values point to notes of the source that are not given here.

Tested on: obesity-induced mice from high fat diet
Assay: Body weight change of obesity-induced mice
Format: in vivo, C57BL/6J mice
Details: 60% high fat diet + Metformin 250 mg/kg b.w.
Procedure: The effect on the body weight change of obesity-induced mice from high fat diet of the complex of the Indian gooseberry extract and barley sprout extract of the present invention was confirmed. As an experimental animal, 4-week male C57BL/6J mice around 20 g were supplied from Saeron Bio Inc. (Uiwang-si, Korea). They were used for the experiment, after passing through the adaptation period for 1 week under the condition that the light and dark was 12 hours (light/dark cycle) and the temperature was 23±2° C. and the relative humidity was 50±5%. During the adaptation period, AIN-93G diet and drinking water were allowed to be consumed freely, and the body weight was measured to separate 8 mice per each group by the random method. At the end of the adaptation period, the sample intake was progressed as free diet intake for 15 weeks, and the dietary intake and body weight were measured every week, and after the end of the experiment, the weight gain was divided by the dietary intake (total food consumption)) for the same period to calculate the food efficiency ratio (FER). The classification of the experimental group and the composition of the experimental diet were shown in Table 5, and the equation of the diet efficiency was shown in the following equation 3. FER=weight gain (g)/total food consumption (g)×100 Equation 3

CN(C)C(=N)N=C(N)N [Met, Metformin]
Initial body weight: 19.26 ± 0.66 g | Final body weight (g) (15 weeks): 39.46 ± 2.16^d g | Food intake (g/day/mouse) (15 weeks): 2.66 ± 0.18^b g/day/mouse | Weight gain (g) (15 weeks): 20.20 ± 1.89^c g | FER (food efficiency ratio) (weight gain/total food consumption x100): 7.25 ± 0.68^c
